From patent US20260355196A1, “INHIBITORS AND DEGRADERS OF PIP4K PROTEIN” (Larkspur Biosciences, Inc., priority 2023, published 2026)

target: T1, PIP4K2C (Homo sapiens, UniProt Q8TBX8); test: HiBiT PIP4K2C degradation assay in MOLT-4 cells (endogenous PIP4K2C C-terminally tagged with HiBiT); assay type: cell-based; design: untagged in primary human PBMCs and monocyte-derived dendritic cells; conditions: 6 hours of incubation time, rather than 24 hours; MOLT-4, top concentration 10 micromolar; read-out: HiBIT-degradation MOLT4 PIP4k2C DC50 (6 hours, marked *)
T1 sequence (Q8TBX8 1-421): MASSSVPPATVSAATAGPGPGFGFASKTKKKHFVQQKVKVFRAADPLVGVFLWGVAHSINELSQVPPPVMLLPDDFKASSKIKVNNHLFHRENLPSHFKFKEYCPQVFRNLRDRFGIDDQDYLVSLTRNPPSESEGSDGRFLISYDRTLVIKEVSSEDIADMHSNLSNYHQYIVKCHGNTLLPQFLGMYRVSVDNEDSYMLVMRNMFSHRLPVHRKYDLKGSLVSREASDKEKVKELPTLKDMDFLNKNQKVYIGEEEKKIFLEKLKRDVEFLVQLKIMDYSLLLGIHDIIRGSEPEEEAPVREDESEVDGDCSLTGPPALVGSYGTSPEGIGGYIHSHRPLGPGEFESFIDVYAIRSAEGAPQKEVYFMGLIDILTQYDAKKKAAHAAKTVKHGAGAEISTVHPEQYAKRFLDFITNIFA
How it was run: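 MOLT-4 cells with endogenous PIP4K2C C-terminally HiBiT-tagged by CRISPR were treated with a 10-point, 3-fold dilution series from 10 micromolar, in duplicate, for 24 h or 6 h at 37 C. Remaining tagged protein read by HiBiT lytic luminescence; DC50 from Hill-equation fit.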

Row | SMILES | DC50
1 | Cn1nc(C2CCC(=O)NC2=O)c2ccc(N3CCN(CC4CCN(C(=O)[C@H]5CC[C@H](Nc6ncc(F)c(-c7cccc(-c8ccc[nH]c8=O)c7)n6)CC5)CC4)CC3)cc21 (stereo partly drawn) [Compound 417, 3-(6-(4-((1-(trans-4-((5-fluoro-4-(3-(2-oxo-1,2-dihydropyridin-3-yl)phenyl)pyrimidin-2-yl)amino)cyclohexane-1-carbonyl)piperidin-4-yl)methyl)piperazin-1-yl)-1-methyl-1H-indazol-3-yl)piperidine-2,6-dione] | < 0.5 µM
2 | O=C1CCC(Nc2ccc(N3CCN([C@H]4CC[C@H](C(=O)N[C@H]5CC[C@H](Nc6ncc(F)c(-c7cccc(N8CCCOC8=O)c7)n6)CC5)CC4)CC3)c(F)c2)C(=O)N1 (stereo partly drawn) [Compound 424, trans-(1r,4R)-4-(4-(4-((2,6-dioxopiperidin-3-yl)amino)-2-fluorophenyl)piperazin-1-yl)-N-((1r,4R)-4-((5-fluoro-4-(3-(2-oxo-1,3-oxazinan-3-yl)phenyl)pyrimidin-2-yl)amino)cyclohexyl)cyclohexane-1-carboxamide] | < 0.5 µM
3 | O=C1CCC(Nc2ccc(N3CCC(CC4CCN(C(=O)[C@H]5CC[C@H](Nc6ncc(F)c(-c7cccc(N8CCCOC8=O)c7)n6)CC5)CC4)CC3)c(F)c2)C(=O)N1 (stereo partly drawn) [Compound 425, trans-3-((3-fluoro-4-(4-((1-(-4-((5-fluoro-4-(3-(2-oxo-1,3-oxazinan-3-yl)phenyl)pyrimidin-2-yl)amino)cyclohexane-1-carbonyl)piperidin-4-yl)methyl)piperidin-1-yl)phenyl)amino)piperidine-2,6-dione] | < 0.5 µM
4 | O=C1CCC(Nc2ccc(N3CCN(CC4CCN(C(=O)[C@H]5CC[C@H](Nc6ncc(F)c(-c7cccc(N8CCCOC8=O)c7)n6)CC5)CC4)CC3)c(F)c2)C(=O)N1 (stereo partly drawn) [Compound 426, trans-3-[3-fluoro-4-[4-[[1-[4-[[5-fluoro-4-[3-(2-oxo-1,3-oxazinan-3-yl)phenyl]pyrimidin-2-yl]amino]cyclohexanecarbonyl]-4-piperidyl]methyl]piperazin-1-yl]anilino]piperidine-2,6-dione] | < 0.5 µM
5 | O=C1CCC(Nc2ccc(C3CCN(CC4CCN(C(=O)[C@H]5CC[C@H](Nc6ncc(F)c(-c7cccc(N8CCCOC8=O)c7)n6)CC5)CC4)CC3)c(F)c2)C(=O)N1 (stereo partly drawn) [Compound 427, trans-3-((3-fluoro-4-(1-((1-(4-((5-fluoro-4-(3-(2-oxo-1,3-oxazinan-3-yl)phenyl)pyrimidin-2-yl)amino)cyclohexane-1-carbonyl)piperidin-4-yl)methyl)piperidin-4-yl)phenyl)amino)piperidine-2,6-dione] | < 0.5 µM
6 | O=C1CCC(Nc2ccc(N3CCC(CN4CCN(C(=O)[C@H]5CC[C@H](Nc6ncc(F)c(-c7cccc(N8CCCOC8=O)c7)n6)CC5)CC4)CC3)c(F)c2)C(=O)N1 (stereo partly drawn) [Compound 428, trans-3-((3-fluoro-4-(4-((4-(4-((5-fluoro-4-(3-(2-oxo-1,3-oxazinan-3-yl)phenyl)pyrimidin-2-yl)amino)cyclohexane-1-carbonyl)piperazin-1-yl)methyl)piperidin-1-yl)phenyl)amino)piperidine-2,6-dione] | < 0.5 µM
7 | O=C1CCC(Nc2ccc(N3CCC(N4CCC(C(=O)N[C@H]5CC[C@H](Nc6ncc(F)c(-c7cccc(-c8ccc[nH]c8=O)c7)n6)CC5)CC4)CC3)c(F)c2)C(=O)N1 (stereo partly drawn) [Compound 429, trans-1′-(4-((2,6-dioxopiperidin-3-yl)amino)-2-fluorophenyl)-N-(4-((5-fluoro-4-(3-(2-oxo-1,2-dihydropyridin-3-yl)phenyl)pyrimidin-2-yl)amino)cyclohexyl)-[1,4′-bipiperidine]-4-carboxamide] | < 0.5 µM
8 | O=C1CCC(Nc2ccc(N3CCC(CN4CCN(C(=O)[C@H]5CC[C@H](Nc6ncc(F)c(-c7cccc(-c8ccc[nH]c8=O)c7)n6)CC5)CC4)CC3)c(F)c2)C(=O)N1 (stereo partly drawn) [Compound 430, 3-((3-fluoro-4-(4-((4-(trans-4-((5-fluoro-4-(3-(2-oxo-1,2-dihydropyridin-3-yl)phenyl)pyrimidin-2-yl)amino)cyclohexane-1-carbonyl)piperazin-1-yl)methyl)piperidin-1-yl)phenyl)amino)piperidine-2,6-dione] | < 0.5 µM
9 | O=C1CCC(Nc2ccc(N3CCC(N4CCC(NC(=O)[C@H]5CC[C@H](Nc6ncc(F)c(-c7cccc(-n8ccccc8=O)c7)n6)CC5)CC4)C(F)(F)C3)c(F)c2)C(=O)N1 (stereo partly drawn) [Compound 431, trans-N-(1′-(4-((2,6-dioxopiperidin-3-yl)amino)-2-fluorophenyl)-3′,3′-difluoro-[1,4′-bipiperidin]-4-yl)-4-((5-fluoro-4-(3-(2-oxopyridin-1(2H)-yl)phenyl)pyrimidin-2-yl)amino)cyclohexane-1-carboxamide] | < 0.5 µM
10 | O=C1CCC(Nc2ccc(C3CCN(C4CCC(NC(=O)C5CCC(Nc6ncc(F)c(-c7cccc(-c8ccc[nH]c8=O)c7)n6)CC5)CC4)CC3)c(F)c2)C(=O)N1 [Compound 435, trans-(1r,4R)—N-((1S,4R)-4-(4-(4-(((S)-2,6-dioxopiperidin-3-yl)amino)-2-fluorophenyl)piperidin-1-yl)cyclohexyl)-4-((5-fluoro-4-(3-(2-oxo-1,2-dihydropyridin-3-yl)phenyl)pyrimidin-2-yl)amino)cyclohexane-1-carboxamide] | < 0.5 µM

The next lines start with the values.

Row | DC50 | SMILES
11 | < 0.5 µM | O=C1CC[C@@H](Nc2ccc(N3CCC(N4CCC(NC(=O)[C@H]5CC[C@H](Nc6ncc(F)c(-c7cccc(-n8ccccc8=O)c7)n6)CC5)CC4)CC3)c(F)c2)C(=O)N1 [Compound 440, trans-N-(1′-(4-(((R)-2,6-dioxopiperidin-3-yl)amino)-2-fluorophenyl)-[1,4′-bipiperidin]-4-yl)-4-((5-fluoro-4-(3-(2-oxopyridin-1(2H)-yl)phenyl)pyrimidin-2-yl)amino)cyclohexane-1-carboxamide]
12 | < 0.5 µM | O=C1CCC(Nc2ccc(N3CCC(N4CCC(O)(C(=O)N[C@H]5CC[C@H](Nc6ncc(F)c(-c7cccc(-n8ccccc8=O)c7)n6)CC5)CC4)CC3)c(F)c2)C(=O)N1 (stereo partly drawn) [Compound 444, trans-1′-(4-((2,6-dioxopiperidin-3-yl)amino)-2-fluorophenyl)-N-(4-((5-fluoro-4-(3-(2-oxopyridin-1(2H)-yl)phenyl)pyrimidin-2-yl)amino)cyclohexyl)-4-hydroxy-[1,4′-bipiperidine]-4-carboxamide]
13 | < 0.5 µM | O=C1CCC(Nc2ccc(C3CCN([C@H]4CC[C@H](C(=O)N[C@H]5CC[C@H](Nc6ncc(F)c(-c7cccc(N8CCOC8=O)c7)n6)CC5)CC4)CC3)c(F)c2)C(=O)N1 (stereo partly drawn) [Compound 446, trans-(1r,4R)-4-(4-(4-((2,6-dioxopiperidin-3-yl)amino)-2-fluorophenyl)piperidin-1-yl)-N-((1r,4R)-4-((5-fluoro-4-(3-(2-oxooxazolidin-3-yl)phenyl)pyrimidin-2-yl)amino)cyclohexyl)cyclohexane-1-carboxamide]
14 | < 0.5 µM | O=C1CCC(Nc2ccc(C3CCN([C@H]4CC[C@H](C(=O)N[C@H]5CC[C@H](Nc6ncc(F)c(-c7cccc(N8CCCCC8=O)c7)n6)CC5)CC4)CC3)c(F)c2)C(=O)N1 (stereo partly drawn) [Compound 447, trans-(1r,4R)-4-(4-(4-((2,6-dioxopiperidin-3-yl)amino)-2-fluorophenyl)piperidin-1-yl)-N-((1r,4R)-4-((5-fluoro-4-(3-(2-oxopiperidin-1-yl)phenyl)pyrimidin-2-yl)amino)cyclohexyl)cyclohexane-1-carboxamide]
15 | < 0.5 µM | O=C1CCC(Nc2ccc(N3CCN([C@H]4CC[C@H](C(=O)N[C@H]5CC[C@H](Nc6ncc(F)c(-c7cccc(-c8ccc[nH]c8=O)c7)n6)CC5)CC4)CC3)c(F)c2)C(=O)N1 (stereo partly drawn) [Compound 450, trans-4-(4-(4-((2,6-dioxopiperidin-3-yl)amino)-2-fluorophenyl)piperazin-1-yl)-N-(trans-4-((5-fluoro-4-(3-(2-oxo-1,2-dihydropyridin-3-yl)phenyl)pyrimidin-2-yl)amino)cyclohexyl)cyclohexane-1-carboxamide]
16 | < 0.5 µM | O=C1CCC(Nc2ccc(N3CCC(N4CCC(NC(=O)[C@H]5CC[C@H](Nc6ncc(F)c(-c7cccc(-c8ccc[nH]c8=O)c7)n6)CC5)CC4)C(F)(F)C3)c(F)c2)C(=O)N1 (stereo partly drawn) [Compound 451, trans-N-(1′-(4-((2,6-dioxopiperidin-3-yl)amino)-2-fluorophenyl)-3′,3′-difluoro-[1,4′-bipiperidin]-4-yl)-4-((5-fluoro-4-(3-(2-oxo-1,2-dihydropyridin-3-yl)phenyl)pyrimidin-2-yl)amino)cyclohexane-1-carboxamide]
17 | < 0.5 µM | O=C1CCC(Nc2ccc(N3CCC(N4CCC(NC(=O)[C@H]5CC[C@H](Nc6ncc(F)c(-c7cccc(-n8ccccc8=O)c7)n6)CC5)CC4)C(F)C3)c(F)c2)C(=O)N1 (stereo partly drawn) [Compound 452, trans-N-(1′-(4-((2,6-dioxopiperidin-3-yl)amino)-2-fluorophenyl)-3′-fluoro-[1,4′-bipiperidin]-4-yl)-4-((5-fluoro-4-(3-(2-oxopyridin-1(2H)-yl)phenyl)pyrimidin-2-yl)amino)cyclohexane-1-carboxamide]
